# In patent publication US12370167B2, “Blood-brain barrier permeability regulator and use thereof” (ZHEJIANG UNIVERSITY, priority 2019, dated 2025):
# Key:
# neurons = conditions: mouse model of permanent local cerebral ischemia; cited from earlier work
# [1] = system: bEnd.3 cells; bEnd.3 co-incubated with U87 MG; experiment: Real-time transmembrane resistance of physiological and pathological blood-brain barrier models after SC79; type: cell-based; conditions: SC79 5 μg/mL
# Description: FIG. 9: In vitro time-dependent regulation of transmembrane resistance of the blood-brain barrier by SC79. A Transwell model of brain microvascular endothelial cells bEnd.3 was used to mimic the physiological blood-brain barrier. A Transwell model of co-incubated brain microvascular endothelial cells bEnd.3 and glioma cell U87 MG was used to mimic the pathological blood-brain barrier. SC79 (5 μg/mL) was applied to the Transwell chamber. The cell transmembrane resistance was real-time monitored by a cell resistance meter (n=5).
# Brain microvascular endothelial cells bEnd.3 were used as model cells of a blood-brain barrier. 0.5 mL suspension of well-grown bEnd.3 cells was inoculated in the chamber of a 12-well Transwell plate with a pore size of 0.4 μm at a cell density of 1×10^5/well. 1.5 mL of fresh culture medium was supplemented in the outer chamber. The culture medium was refreshed every other day. Incubation was continued for 15 days at 37° C. and 5% CO2. […]
# The physiological blood-brain barrier and the pathological blood-brain barrier, as respectively constructed according to the procedures described in the above sections of 1 and 2 of Example 2, were used as a model, respectively. […] The cell transmembrane resistance was real-time monitored.
# [2] = system: blood-brain barrier permeability; experiment: Brain distribution of DiR-labelled Angiopep-2-modified glycolipid nano-delivery system after SC79 in in situ glioma model; type: in vivo, BABL/c nude mice; conditions: SC79 5 mg/kg tail vein 24 hours before the DiR-labelled system; brain taken after 4 hours; vs tumor-bearing control group
# Description: FIG. 12: Regulation of increase in the blood-brain barrier permeability and enhancement of distribution of Angiopep-2-modified glycolipid nano-delivery system in the brain by SC79. SC79 was injected into tail veins of tumor-bearing animals at an administration dose of 5 mg/kg. After 24 hours, the Angiopep-2-modified glycolipid nano-delivery system encapsulated with near-infrared fluorescent probe DiR was injected into tail veins. After 4 hours, the intact brain of the nude mice was taken by cardiac perfusion.
# Male BABL/c nude mice (20+2 g) were used as the model animals. U87-luci glioma cells expressing luciferase were inoculated in the striatum area of nude mice at a concentration of 5×10^5 cells/5 μL by means of a brain stereotaxic instrument (inoculation coordinates, 0.8 mm on the anterior side of bregma, 2 mm on the right side, and 3 mm in depth), to construct an in situ glioma model. SC79 diluted with 0.2% injection grade Tween 80 solution was injected into tail veins at an administration dose of 5 mg/kg. After 24 hours, the Angiopep-2-modified glycolipid nano-delivery system encapsulated with near-infrared fluorescent probe DiR was injected into tail veins. After 4 hours, the intact brain of the nude mice was taken by cardiac perfusion. […]
# [3] = system: blood-brain barrier permeability; experiment: Evans blue permeation into the brain after SC79; type: in vivo, BABL/c nude mice
# Description: FIG. 10: In vivo regulation of increase in the blood-brain barrier permeability and increase in the amount of Evans blue permeated into the brain by SC79. SC79 was injected into tail veins of tumor-bearing animals at an administration dose of 5 mg/kg and 10 mg/kg, respectively. After 24 hours, an Evans blue solution was injected into tail veins at an administration dose of 5 mg/kg. After 4 hours, the intact brain of the nude mice was taken by cardiac perfusion.
# FIG. 11: In vivo time-dependent regulation of increase in the blood-brain barrier permeability by SC79. SC79 was injected into tail veins of tumor-bearing animals at an administration dose of 5 mg/kg and 10 mg/kg, respectively. After 0 hour, 0.5 hour, and 24 hours, an Evans blue solution was injected into tail veins at an administration dose of 5 mg/kg. After 4 hours, the intact brain of the nude mice was taken by cardiac perfusion.
# (§1) Male BABL/c nude mice (20+2 g) were used as the model animals. SC79 diluted with 0.2% injection grade Tween 80 solution was injected into tail veins at an administration dose of 5 mg/kg, 10 mg/kg. After 24 hours, an Evans blue solution was injected into tail veins at an administration dose of 5 mg/kg. After 4 hours, the intact brain of the nude mice was taken by cardiac perfusion. The distribution intensity of Evans blue in the brain tissue was qualitatively observed with a small animal live imaging instrument.
# as §1, with “nude mice (20±2 g) were” for “nude mice (20+2 g) were”, “mg/kg. After 0.5 hour, and after 24 hours,” for “mg/kg. After 24 hours,”
structure (smiles),measurement,setting,value
CCOC(=O)C1=C(N)Oc2ccc(Cl)cc2C1C(C#N)C(=O)OCC (stereo not shown) [SC79],survival of neurons,neurons,increases the survival of neurons
same,effect in increasing the blood-brain barrier permeability,[1]; after 24 hours of the drug action,most significant effect
same,cell transmembrane resistance over time,"[1]; physiological and pathological models, real-time",decreased in a time-dependent manner
same,distribution of Angiopep-2-modified glycolipid nano-delivery system in the brain,[2],increased
same,amount of Evans blue permeated into the brain,"[3]; SC79 5 mg/kg, 10 mg/kg tail vein, Evans blue after 24 hours, vs tumor-bearing control group",increased
same,amount of Evans blue permeated into the brain,"[3]; SC79 tail vein, Evans blue 0.5 hour after SC79",increased
same,amount of Evans blue permeated into the brain,"[3]; SC79 tail vein, Evans blue 24 hours after SC79",the highest
